Measurements: patent US20140107109A1, “AMINO-DIHYDROTHIAZINE AND AMINO-DIOXIDO DIHYDROTHIAZINE COMPOUNDS AS BETA-SECRETASE ANTAGONISTS AND METHODS OF USE” (Amgen Inc., priority 2012, published 2014)
Read-outs that look alike come from different tables or passages of the source.

Key:
[1] = test system: Aβ40 in conditioned medium of cells stably expressing Amyloid Precursor Protein (APP); assay: In vitro BACE cell-based assay (HEK cell assay), Aβ40 sandwich ELISA; settings: Homo sapiens, HEK293
In short: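 Aβ40 in conditioned medium was quantified by time-resolved fluorescence sandwich ELISA (pAb40 capture 3 h at 4 °C, biotin-6E10 detection 2 h at 4 °C) after 24 h compound exposure of APP-expressing cells. Doses spanned 10 points from 100 μM or 10 μM top, 0.1% DMSO; IC50 was derived from percent of control.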

[2] = target: Beta Secretase enzyme (BACE1) (Homo sapiens, UniProt P56817); assay: In vitro enzymatic BACE FRET assay; assay type: biochemical; settings: read-out: BACE1 FRET assay IC50
Beta Secretase enzyme (BACE1), sequence (P56817 46-501): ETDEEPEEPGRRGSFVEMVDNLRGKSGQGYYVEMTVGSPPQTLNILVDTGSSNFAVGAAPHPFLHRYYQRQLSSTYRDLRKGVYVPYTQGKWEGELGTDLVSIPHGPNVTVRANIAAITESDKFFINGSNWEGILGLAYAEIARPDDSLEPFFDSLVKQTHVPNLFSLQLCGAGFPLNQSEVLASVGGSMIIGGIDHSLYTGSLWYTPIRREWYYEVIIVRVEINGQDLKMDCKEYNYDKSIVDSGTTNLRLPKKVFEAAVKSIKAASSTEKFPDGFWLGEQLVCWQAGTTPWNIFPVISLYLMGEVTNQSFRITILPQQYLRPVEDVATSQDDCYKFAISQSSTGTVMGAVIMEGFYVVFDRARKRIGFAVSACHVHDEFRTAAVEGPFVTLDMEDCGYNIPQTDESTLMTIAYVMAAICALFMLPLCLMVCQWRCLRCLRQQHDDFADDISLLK
In short: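 Readout: dequenched fluorescence (ex 488 nm/[…]) after neutralizing with Tris buffer. Reactions, begun by adding 50 nM quenched peptide substrate spanning the BACE cleavage site, were incubated one hour at pH 4.2 in 0.05 M acetate with 100 uM genapol and 10% final DMSO.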

Cathepsin D (Cat D) = target: T1, Cathepsin D (Cat D) (Homo sapiens, UniProt P07339); assay: In vitro enzymatic Cathepsin D (Cat D) FRET assay; assay type: biochemical; settings: read-out: CatD IC50
T1 construct: Recombinant Cat D was expressed in CHO cells; made in house; host or cells: CHO cells
T1 sequence (P07339 65-412, species assumed): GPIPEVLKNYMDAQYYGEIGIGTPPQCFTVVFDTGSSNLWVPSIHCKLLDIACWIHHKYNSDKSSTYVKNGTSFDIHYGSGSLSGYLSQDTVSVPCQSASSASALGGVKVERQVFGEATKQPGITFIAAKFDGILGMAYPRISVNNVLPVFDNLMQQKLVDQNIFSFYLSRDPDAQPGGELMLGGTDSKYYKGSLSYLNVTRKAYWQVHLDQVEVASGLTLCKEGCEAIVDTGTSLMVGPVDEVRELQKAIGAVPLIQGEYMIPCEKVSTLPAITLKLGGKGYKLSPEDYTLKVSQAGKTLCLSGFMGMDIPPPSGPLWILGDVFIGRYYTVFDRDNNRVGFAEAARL
In short: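 FRET read-out: a fluorophore/quencher-labelled peptide substrate is cleaved by 9 nM Cat D (recombinant, CHO-expressed) following a one-hour preincubation with inhibitor dilutions in DMSO. Tris buffer added to neutralize pH ends the reaction before fluorescence measurement.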

IC50 ([1]; average IC50, HEK cell assay) [µM]	IC50 ([2]; average IC50, enzyme assay) [µM]	IC50 (Cathepsin D (Cat D)) [µM]	IC50 [2] [µM]	Structure (SMILES)	further results
	0.00037	58.4		CC1(C)C(N)=N[C@](CF)(c2cc(Nc3nccc4cc(Cl)cnc34)ccc2F)CS1(=O)=O [Example 448, N-(3-((3S)-5-amino-3-(fluoromethyl)-6,6-dimethyl-1,1-dioxido-3,6-dihydro-2H-1,4-thiazin-3-yl)-4-fluorophenyl)-3-chloro-1,7-naphthyridin-8-amine]	IC50 ([1]; average IC50, cell assay): 0.0285 µM
0.0141	0.00079	241		Cc1cc(Cl)cnc1C(=O)Nc1ccc(F)c([C@]2(CF)CS(=O)(=O)C3(CCC3)C(N)=N2)c1 [Example 366, N-(3-((7S)-9-amino-7-(fluoromethyl)-5,5-dioxido-5-thia-8-azaspiro[3.5]non-8-en-7-yl)-4-fluorophenyl)-5-chloro-3-methyl-2-pyridinecarboxamide]	
	0.0302	375		CC1(C)C(N)=N[C@](CF)(c2cc(Nc3nncc4cc(Br)ccc34)ccc2F)CS1(=O)=O [Example 449, N-(3-((3S)-5-amino-3-(fluoromethyl)-6,6-dimethyl-1,1-dioxido-3,6-dihydro-2H-1,4-thiazin-3-yl)-4-fluorophenyl)-6-bromo-1-phthalazinamine]	IC50 ([1]; average IC50, cell assay): 0.159 µM
		78.9	0.00063	Cc1cc(OC(F)F)cnc1C(=O)Nc1ccc(F)c([C@]2(CF)CS(=O)(=O)C3(CCC3)C(N)=N2)c1 [Example 412, N-(3-((7S)-9-amino-7-(fluoromethyl)-5,5-dioxido-5-thia-8-azaspiro[3.5]non-8-en-7-yl)-4-fluorophenyl)-5-(difluoromethoxy)-3-methyl-2-pyridinecarboxamide]	IC50 [1]: 0.0082 µM
	0.031	1450		CC1(C)C(N)=N[C@](C)(c2cc(Nc3nccc4cc(OCCF)cnc34)ccc2F)CS1(=O)=O [Example 421, N-(3-((3R)-5-amino-3,6,6-trimethyl-1,1-dioxido-3,6-dihydro-2H-1,4-thiazin-3-yl)-4-fluorophenyl)-3-(2-fluoroethoxy)-1,7-naphthyridin-8-amine]	IC50 ([1]; average IC50, cell assay): 0.0115 µM
0.0009	0.0008	410		CC1(C)C(N)=N[C@](C)(c2cc(NC(=O)c3ncc(Cl)cc3Br)ccc2F)CS1(=O)=O [Example 352, N-(3-((3R)-5-amino-3,6,6-trimethyl-1,1-dioxido-3,6-dihydro-2H-1,4-thiazin-3-yl)-4-fluorophenyl)-3-bromo-5-chloro-2-pyridinecarboxamide]	
		103	0.0117	Cc1c(C(=O)Nc2ccc(F)c([C@]3(CF)CS(=O)(=O)C(C)(C)C(N)=N3)c2)nc2ccc(F)cn12 [Example 393, N-(3-((3S)-5-amino-3-(fluoromethyl)-6,6-dimethyl-1,1-dioxido-3,6-dihydro-2H-1,4-thiazin-3-yl)-4-fluorophenyl)-6-fluoro-3-methylimidazo[1,2-a]pyridine-2-carboxamide]	IC50 [1]: 0.0605 µM
		367	0.00072	N#Cc1cnc(C(=O)Nc2ccc(F)c([C@]3(CF)CS(=O)(=O)C4(CCC4)C(N)=N3)c2)c(Cl)c1 [Example 372, N-(3-((7S)-9-amino-7-(fluoromethyl)-5,5-dioxido-5-thia-8-azaspiro[3.5]non-8-en-7-yl)-4-fluorophenyl)-3-chloro-5-cyano-2-pyridinecarboxamide]	IC50 [1]: 0.0071 µM

The next lines start with the compound.

Structure (SMILES)	IC50 ([1]; average IC50, HEK cell assay) [µM]	IC50 ([2]; average IC50, enzyme assay) [µM]	IC50 (Cathepsin D (Cat D)) [µM]	IC50 [2] [µM]	further results
CC1(C)C(N)=N[C@](C)(c2cc(NC(=O)c3cnc(C(F)F)cn3)ccc2F)CS1(=O)=O [Example 313, N-(3-((3R)-5-amino-3,6,6-trimethyl-1,1-dioxido-3,6-dihydro-2H-1,4-thiazin-3-yl)-4-fluorophenyl)-5-(difluoromethyl)-2-pyrazinecarboxamide]	0.0063	0.00292	887		
CC1(C)C(N)=N[C@](C)(c2cc(NC(=O)c3ccc(C(F)(F)F)cn3)ccc2F)CS1(=O)=O [Example 342, N-(3-((3R)-5-amino-3,6,6-trimethyl-1,1-dioxido-3,6-dihydro-2H-1,4-thiazin-3-yl)-4-fluorophenyl)-5-(trifluoromethyl)-2-pyridinecarboxamide]	0.0007	0.00061	113		
CC1(C)C(N)=N[C@](C)(c2cc(NC(=O)c3ccc(C(F)F)cn3)ccc2F)CS1(=O)=O [Example 20, N-(3-((3R)-5-amino-3,6,6-trimethyl-1,1-dioxido-3,6-dihydro-2H-1,4-thiazin-3-yl)-4-fluorophenyl)-5-(difluoromethyl)-2-pyridinecarboxamide]			193	0.0027	IC50 ([1]; Aβ40, 24 h incubation): 0.0039 µM
C[C@@]1(c2cc(NC(=O)c3ccc(Cl)cn3)ccc2F)CS(=O)(=O)[C@]2(C[C@@H](F)C2)C(N)=N1 [Example 125, N-(3-((2S,4s,7R)-9-amino-2-fluoro-7-methyl-5,5-dioxido-5-thia-8-azaspiro[3.5]non-8-en-7-yl)-4-fluorophenyl)-5-chloropicolinamide]			42.8	0.001	IC50 [1]: 0.0107 µM
CC1(C)C(N)=N[C@](C)(c2cc(Oc3nccc4ccccc34)ccc2F)CS1(=O)=O [Example 294, (5R)-5-(2-fluoro-5-(1-isoquinolinyloxy)phenyl)-2,2,5-trimethyl-5,6-dihydro-2H-1,4-thiazin-3-amine 1,1-dioxide]	1.14	1.05	202		
CC1(C)C(N)=N[C@](C)(c2cc(Oc3ncc(C(N)=O)cc3F)ccc2F)CS1(=O)=O [Example 300, 6-(3-((3R)-5-amino-3,6,6-trimethyl 1,1-dioxido-3,6-dihydro-2H-1,4-thiazin-3-yl)-4-fluorophenoxy)-5-fluoro-3-pyridinecarboxamide]	1.18	0.897	717		
C[C@]1(c2cc(NC(=O)c3cnc(C(F)F)cn3)ccc2F)N=C(N)C2(CCC2)S(=O)(=O)[C@@H]1F [Example 140, N-(3-((6S,7R)-9-amino-6-fluoro-7-methyl-5,5-dioxido-5-thia-8-azaspiro[3.5]non-8-en-7-yl)-4-fluorophenyl)-5-(difluoromethyl)pyrazine-2-carboxamide]			> 400	0.0088	IC50 [1]: 0.0146 µM
Cc1cc(OC(F)F)cnc1C(=O)Nc1ccc(F)c([C@@]2(CF)CS(=O)(=O)C3(CC3)C(N)=N2)c1 [Example 218, N-(3-((6R)-8-amino-6-(fluoromethyl)-4,4-dioxido-4-thia-7-azaspiro[2.5]oct-7-en-6-yl)-4-fluorophenyl)-5-(difluoromethoxy)-3-methyl-2-pyridinecarboxamide]			637		IC50 ([1]; average IC50, HEK cells): 0.83 µM; IC50 ([2]; average IC50): 0.15 µM
Cc1cc(OCC(F)(F)F)cnc1C(=O)Nc1cnc(F)c([C@]2(C)CS(=O)(=O)C3(CCC3)C(N)=N2)c1 [Example 350, N-(5-((7R)-9-amino-7-methyl-5,5-dioxido-5-thia-8-azaspiro[3.5]non-8-en-7-yl)-6-fluoro-3-pyridinyl)-3-methyl-5-(2,2,2-trifluoroethoxy)-2-pyridinecarboxamide]	0.0345	0.00606	> 400		
Cc1c(CNc2cc([C@]3(C)CS(=O)(=O)C(C)(C)C(N)=N3)c(F)cn2)nc2ccc(Cl)cn12 [Example 145, (R)-5-amino-3-(2-(((6-chloro-3-methylimidazo[1,2-a]pyridin-2-yl)methyl)amino)-5-fluoropyridin-4-yl)-3,6,6-trimethyl-3,6-dihydro-2H-1,4-thiazine-1,1-dioxide]	0.412	0.44	102		
COc1cnc2c(Nc3ccc(F)c([C@@]45COC[C@@H]4S(=O)(=O)C(C)(C)C(N)=N5)c3)nccc2n1 [Example 247, N-(3-((4aR,7aR)-3-amino-2,2-dimethyl-1,1-dioxido-7,7a-dihydro-2H-furo[3,4-b][1,4]thiazin-4a(5H)-yl)-4-fluorophenyl)-2-methoxypyrido[3,4-b]pyrazin-5-amine]		0.704	477		IC50 ([1]; average IC50, cell assay): 2.8 µM
CC1(C)C(N)=N[C@](C)(c2cc(Nc3ncc(Br)c4cc(Cl)cnc34)ccc2F)CS1(=O)=O [Example 188, (R)-5-amino-3-(5-((5-bromo-3-chloro-1,7-naphthyridin-8-yl)amino)-2-fluorophenyl)-3,6,6-trimethyl-3,6-dihydro-2H-1,4-thiazine 1,1-dioxide]		0.00083	213		IC50 ([1]; average IC50, cell assay): 0.0597 µM
Cc1ccnc(Oc2ccc(F)c([C@]3(C)CS(=O)(=O)C(C)(C)C(N)=N3)c2)c1C#N [Example 310, 2-(3-((3R)-5-amino-3,6,6-trimethyl-1,1-dioxido-3,6-dihydro-2H-1,4-thiazin-3-yl)-4-fluorophenoxy)-4-methyl-3-pyridinecarbonitrile]	0.931	1.34	444		
COc1cnc(C(=O)Nc2ccc(F)c(C3(C(F)F)CS(=O)(=O)C(C)(C)C(N)=N3)c2)cn1 (stereo not drawn) [Example 32, N-(3-(-5-amino-3-(difluoromethyl)-6,6-dimethyl-1,1-dioxido-3,6-dihydro-2H-1,4-thiazin-3-yl)-4-fluorophenyl)-5-methoxy-2-pyrazinecarboxamide]			> 400	0.0531	IC50 ([1]; Aβ40, 24 h incubation): 1.42 µM
